Reference: ChEMBL document CHEMBL1201862, “PubChem BioAssay data set” (2004)
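Grown in 96-well plates, cells were treated for 48 hours with each compound at five concentrations. Insufficient inhibition: endpoint recorded as highest concentration tested. GI50: concentration for 50% inhibition of growth.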 Activity calls are given as the source filed them. No stated cut-off is given here; in the data, active = GI50 up to about 1.1 µM and inactive = higher.

Legend:
Experiment in all cases: NCI-60 cell line screen, 48 h
[1] = test system: COLO 205
[2] = test system: OVCAR-5
[3] = test system: SNB-19
[4] = test system: HOP-62
[5] = test system: SK-MEL-2
[6] = test system: A549
[7] = test system: SF-268
[8] = test system: EKVX
[9] = test system: NCI/ADR-RES
[10] = test system: U-251
[11] = test system: A498
[12] = test system: NCI-H23
[13] = test system: HOP-92
[14] = test system: MDA-N
[15] = test system: RXF 393
[16] = test system: HCT-116
[17] = test system: NCI-H522
[18] = test system: Hs-578T
[19] = test system: BT-549
[20] = test system: SNB-75
[21] = test system: SN12C
[22] = test system: RPMI-8226
[23] = test system: MDA-MB-231
[24] = test system: CAKI-1
[25] = test system: TK-10
[26] = test system: LOX IMVI
[27] = test system: OVCAR-4
[28] = test system: SR
[29] = test system: MCF7
[30] = test system: SK-OV-3
[31] = test system: ACHN
[32] = test system: OVCAR-3
[33] = test system: SF-295
[34] = test system: HCT-15
[35] = test system: PC-3
[36] = test system: IGROV-1
[37] = test system: HL-60
[38] = test system: NCI-H226
[39] = test system: UACC-257
[40] = test system: SK-MEL-5
[41] = test system: K562
[42] = test system: MDA-MB-435
[43] = test system: CCRF-CEM
[44] = test system: MOLT-4
[45] = test system: OVCAR-8
[46] = test system: 786-0
[47] = test system: HT-29
[48] = test system: SK-MEL-28
[49] = test system: KM12
[50] = test system: UO-31
[51] = test system: SW-620
[52] = test system: Malme-3M
[53] = test system: T47D
[54] = test system: M14
[55] = test system: DU-145
[56] = test system: SF-539
[57] = test system: NCI-H460
[58] = test system: UACC-62
[59] = test system: HCC 2998

With `COC(=O)c1cc(C)n2c1CS[C@@H]2c1ccccc1` the GI50 [1] was 26.9 µM (inactive), the GI50 [2] was > 100 µM (inactive) and the GI50 [3] was 66.1 µM (inactive). For the same compound, the GI50 [4] was 37.8 µM (inactive), the GI50 [5] was 28.4 µM (inactive) and the GI50 [6] was 34.7 µM (inactive). For the same compound, the GI50 [7] was 50.6 µM (inactive), the GI50 [8] was 32.2 µM (inactive) and the GI50 [9] was 25.1 µM (inactive). The GI50 [10] was 32 µM (inactive), the GI50 [11] was 27.4 µM (inactive) and the GI50 [12] was 34.5 µM (inactive). The GI50 [13] was 22.4 µM (inactive), the GI50 [14] was 21.1 µM (inactive) and the GI50 [15] was 18.6 µM (inactive). The GI50 [16] was 33.7 µM (inactive), the GI50 [17] was 23.2 µM (inactive) and the GI50 [18] was 45.1 µM (inactive). For the same compound, the GI50 [19] was 29.2 µM (inactive), the GI50 [20] was 16.5 µM (inactive) and the GI50 [21] was 37.2 µM (inactive). The GI50 [22] was 28.2 µM (inactive), the GI50 [23] was 57.4 µM (inactive) and the GI50 [24] was 38.7 µM (inactive). The GI50 [25] was 66.4 µM (inactive), the GI50 [26] was 40.1 µM (inactive) and the GI50 [27] was 36.8 µM (inactive). For the same compound, the GI50 [28] was 17.3 µM (inactive), the GI50 [29] was 34 µM (inactive) and the GI50 [30] was 46 µM (inactive). The GI50 [31] was 58.7 µM (inactive), the GI50 [32] was 32.4 µM (inactive) and the GI50 [33] was 30.7 µM (inactive). The GI50 [34] was 27.5 µM, the GI50 [35] was 40.5 µM (inactive) and the GI50 [36] was 44.4 µM (inactive). The GI50 [37] was 26.2 µM (inactive), the GI50 [38] was 28.8 µM (inactive) and the GI50 [39] was 47.9 µM (inactive). For the same compound, the GI50 [40] was 19.8 µM (inactive), the GI50 [41] was 14.1 µM (inactive) and the GI50 [42] was 19.1 µM (inactive). For the same compound, the GI50 [43] was 41.4 µM (inactive), the GI50 [44] was 22.5 µM (inactive) and the GI50 [45] was 44.4 µM (inactive). For the same compound, the GI50 [46] was 50.6 µM (inactive), the GI50 [47] was 31.2 µM (inactive) and the GI50 [48] was > 100 µM (inactive). For the same compound, the GI50 [49] was 35.1 µM (inactive), the GI50 [50] was 28.4 µM (inactive) and the GI50 [51] was 44.6 µM (inactive). The GI50 [52] was 27.6 µM (inactive), the GI50 [53] was 21.5 µM (inactive) and the GI50 [54] was 24.9 µM (inactive). For the same compound, the GI50 [55] was 82 µM (inactive).

For `Cc1c(Cc2ccccc2)c(Cc2ccccc2)c(C)[s+]1[O-]`, the GI50 [1] was 20.5 µM (inactive), the GI50 [2] was 20.1 µM (inactive) and the GI50 [3] was 47.1 µM (inactive). For the same compound, the GI50 [4] was 50.4 µM (inactive), the GI50 [5] was 16.9 µM (inactive) and the GI50 [6] was 30.2 µM (inactive). For the same compound, the GI50 [7] was 51.1 µM (inactive), the GI50 [8] was 18.4 µM (inactive) and the GI50 [9] was 19.7 µM (inactive). The GI50 [10] was 25.6 µM (inactive), the GI50 [11] was 24.5 µM (inactive) and the GI50 [12] was 28.3 µM (inactive). For the same compound, the GI50 [13] was 27.4 µM (inactive), the GI50 [14] was 24.6 µM (inactive) and the GI50 [15] was 20.6 µM (inactive). The GI50 [16] was 24.1 µM (inactive), the GI50 [17] was 23.7 µM (inactive) and the GI50 [18] was 37.8 µM (inactive). The GI50 [19] was 33.2 µM (inactive), the GI50 [56] was 45.2 µM (inactive) and the GI50 [20] was 20 µM (inactive). For the same compound, the GI50 [21] was 26.5 µM (inactive), the GI50 [22] was 19.7 µM (inactive) and the GI50 [23] was 19.2 µM (inactive). For the same compound, the GI50 [24] was 22.7 µM (inactive), the GI50 [25] was 26.1 µM (inactive) and the GI50 [26] was 20.7 µM (inactive). For the same compound, the GI50 [27] was 23.7 µM (inactive), the GI50 [57] was 27.5 µM (inactive) and the GI50 [28] was 19.8 µM (inactive). The GI50 [29] was 20.3 µM (inactive), the GI50 [30] was 40.3 µM (inactive) and the GI50 [31] was 32.7 µM (inactive). The GI50 [32] was 30.8 µM (inactive), the GI50 [33] was 30.1 µM (inactive) and the GI50 [34] was 31.3 µM. The GI50 [35] was 18.8 µM (inactive), the GI50 [36] was 36.8 µM (inactive) and the GI50 [37] was 12.5 µM (inactive). For the same compound, the GI50 [39] was 19.7 µM (inactive), the GI50 [40] was 15.6 µM (inactive) and the GI50 [41] was 21.2 µM (inactive). For the same compound, the GI50 [42] was 17.7 µM (inactive), the GI50 [43] was 19.1 µM (inactive) and the GI50 [58] was 14.5 µM (inactive). For the same compound, the GI50 [44] was 14.7 µM (inactive), the GI50 [45] was 41.3 µM (inactive) and the GI50 [46] was 22.9 µM (inactive). For the same compound, the GI50 [47] was 16.7 µM (inactive), the GI50 [48] was 30.3 µM (inactive) and the GI50 [49] was 17.3 µM (inactive). The GI50 [50] was 31.7 µM (inactive), the GI50 [51] was 26.4 µM (inactive) and the GI50 [52] was 33.2 µM (inactive). The GI50 [53] was 12.9 µM (inactive), the GI50 [54] was 21.2 µM (inactive) and the GI50 [59] was 19.6 µM (inactive). For the same compound, the GI50 [55] was 38.3 µM (inactive).
